According to publication PMC5719405, “Sex-related pharmacokinetic differences and mechanisms of metapristone (RU486 metabolite)” (Scientific Reports, 2017):
Like-named read-outs stand apart in the source and are kept apart here.

Columns and labels:
[1] = cited from earlier work
[2] = Metapristone metabolism in rat liver microsomes in the presence of specific CYP450 inhibitors; conditions: inhibitor 10 µM, metapristone 9 µM, male or female rat liver microsomes, 120 min
[3] = set-up: method as in PMID 22210121; conditions: cited from earlier work

Row | SMILES | effect of CYP inhibitor on metabolism rate of metapristone versus controls [2] | other results
1 | CC[C@H]1OC(=O)[C@@](C)(F)C(=O)[C@H](C)[C@@H](O[C@@H]2O[C@H](C)C[C@H](N(C)C)[C@H]2O)[C@](C)(OC)C[C@@H](C)C(=O)[C@H](C)[C@H]2N(CCCCn3cc(-c4cccc(N)c4)nn3)C(=O)O[C@]12C [Solithromycin] | – | V d [1]: > 500 L
2 | Nc1ccc(S(=O)(=O)Nc2ccnn2-c2ccccc2)cc1 [sulfaphenazole] | No significant differences | –
3 | CCCn1c(=O)c2[nH]c(C34CC5CC(CC3C5)C4)nc2n(CCC)c1=O [Rolofylline] | – | V d [1]: 239 L
4 | CC(=O)N1CCN(c2ccc(OCC3COC(Cn4ccnc4)(c4ccc(Cl)cc4Cl)O3)cc2)CC1 (centres unmarked) [ketoconazole] | significantly prevented metapristone from degradation | –
5 | C=C[C@H]1C[N@@]2CC[C@H]1C[C@@H]2[C@@H](O)c1ccnc2ccc(OC)cc12 [quinidine] | No significant differences | –
6 | CCN(CC)CCCC(C)Nc1ccnc2cc(Cl)ccc12 (centres unmarked) [Chloroquine] | – | V d ([1]; literature example, no reference given): 15,000 L
7 | CC#C[C@]1(O)CC[C@H]2[C@@H]3CCC4=CC(=O)CCC4=C3[C@@H](c3ccc(N(C)C)cc3)C[C@@]21C [mifepristone] | – | plasma protein binding rate [3]: 90%
8 | O=c1cc(-c2ccccc2)oc2c1ccc1ccccc12 [α-naphthoflavone] | significantly prevented metapristone from degradation | –
